In test [1] the test system is retinal ganglion cells (RGCs). In words: Ex vivo optic nerve cut (evONC) model: RGC viability, apoptosis, retinal cytoarchitecture. The test is classed as in vivo, C57BL/6J mice. Conditions: evONC T24, JGRi1 50, 250, 500 μM, sJGRi1 500 μM, n = 4. The method, then: (§1) Animals were then euthanized via beheading.
(§2) Western blots were quantified by densitometry using ImageJ software.
The enucleated eyes were fixed in 4% paraformaldehyde solution overnight at 4 °C. Then, they were incubated in a 30% sucrose-in-PBS solution overnight, and finally, they were embedded in an optimal cutting temperature (OCT, Sigma, St. Louis, MO, USA) compound. Eyes were cut at a thickness of 20 μm. For reliability, the sections containing the optic nerve were utilized, and in each eye, at least five discontinuous sections were analyzed. For histological examination, cryosections were stained in Mayer’s Hematoxylin Solution (Merck, Germany), rinsed in tap water, then counterstained using Eosin Y alcoholic solution (Merck, Germany). Sections were mounted on coverslips with Eukitt (Merck, Germany), and observed under a light-transmission microscope (Nikon) with 40X magnification.
(§3) Fluorescence intensity was quantified by using ImageJ software.

For test [2], the system named is A2 amacrine cells and rod bipolar cells (PROX1-positive). In words: evONC model: PROX1-positive cells in the INL. It is filed as in vivo, C57BL/6J mice. Conditions: evONC T24; JGRi1 50, 250, 500 μM, sJGRi1 500 μM; one drop daily for 6 days; n = 3.
From the text: as §1, §3

The test system of test [3] is JNK2. In words: evONC model: JNK2 expression (immunofluorescence, immunoblot). It is filed as in vivo, C57BL/6J mice. The note with it: evONC T24; 500 μM eye drops (JGRi1 or sJGRi1), one drop daily for 6 days; n = 5.
From the text: as §1, §2, §3

The target of another test is T1, JNK2-STX1A interaction (Mus musculus, UniProt Q9WTU6).
T1 construct: from tissue; host or cells: retinal cryosections of C57BL/6J mice
In words: evONC model: JNK2-STX1A co-localization (Pearson's analysis). It is filed as in vivo, C57BL/6J mice. The note with it: evONC T24; JGRi1 50, 250, 500 μM, sJGRi1 500 μM; one drop daily for 6 days; n = 5. The method, then: as §1, §3
(§4) Co-localization between fluorescent signals in acquired images was expressed using Pearson’s score, which describes the correlation of the intensity distribution between two distinct fluorescent signals. The analysis was carried out using the “JACOP” plug-in available for the ImageJ software. At least 10 different fields per condition were utilized for the quantification.

In a further test the test system is SNARE complex. In words: evONC model: SNARE complex assay (native PAGE). Conditions: evONC T24; JGRi1 50, 250, 500 μM, sJGRi1 500 μM; one drop daily for 6 days; n = 6. It is filed as in vivo, C57BL/6J mice. The method, then:
as §1
The modulation SNARE complex assembly by JGRi1 was evaluated via native PAGE. Briefly, samples were loaded using a non-denaturizing loading buffer (0.5 M Tris-HCl, pH 6.8, 15% v/v glycerol, and 1% v/v bromophenol blue). Samples were then left non-boiled to preserve protein-protein interaction, separated onto polyacrylamide gels, and then blotted onto nitrocellulose membranes. The immunoreactive bands were identified by using an antibody against STX1A, which is a core component of SNARE complexes. Bands starting from approximately 66 kDa were quantified as an indicator of the SNARE complex assembly upon treatment. β-tubulin was used as the loading control for quantification.

In test [4] the test system is retinal ganglion cells (RGCs). In words: NMDA injection model: RGC viability, apoptosis, cytoarchitecture, CTB-488 transport. It is filed as in vivo, C57BL/6J mice.
For a further test, the system named is L-glutamate. In words: NMDA injection model: retinal and synaptic glutamate immunoreactivity. Conditions: intravitreal NMDA; eye drops 250 μM daily from one day prior to NMDA through follow-up; n = 3. The test is classed as in vivo, C57BL/6J mice. The method, then:
as §3, §4

The test system of test [5] is JNK2. In words: NMDA injection model: JNK2 immunofluorescence. It is filed as in vivo, C57BL/6J mice. The note with it: intravitreal NMDA; eye drops 250 μM daily; n = 4.
From the text: as §3

In another test the test system is microglia (IBA1). In words: NMDA injection model: microglial infiltration (IBA1 immunofluorescence). It is filed as in vivo, C57BL/6J mice. Conditions: intravitreal NMDA; eye drops 250 μM daily; n = 5.
From the text: as §3

Another test has as its system STX1A. Conditions: evONC T24; JGRi1 50, 250, 500 μM, sJGRi1 500 μM; one drop daily for 6 days; n = 5.

Take RISEQLSNIEEGQE [sJGRi1]: the “RBPMS-positive cells in the GCL (immunofluorescence), RGC viability” value in test [1] (one drop daily for 6 days before evONC) is reported as “failed to rescue RGC viability upon evONC”. Moreover, the “RBPMS expression (immunoblot, densitometry vs β-TUB)” value in test [1] (one drop daily for 6 days) is recorded as “did not produce any protective effect on RGC viability in comparison to the active peptide”. In addition, in [2], the “number of PROX1-positive cells in the INL” value is “did not produce any protective effect on PROX1-positive cell number”. For the same sequence, the “JNK2 immunoreactivity (immunofluorescence)” value in the test with JNK2 [3] is “does not have any effect on JNK2 nor STX1A expression at T24”; with JNK2 [5], “did not prevent the NMDA-induced increase in JNK2 expression in the inner retina”. For the same sequence, the “JNK2-STX1A co-localization (co-immunofluorescence, Pearson's analysis)” value at JNK2-STX1A interaction is “produced an even more marked co-localization between JNK2 and STX1A”. Further, the “SNARE complex formation (STX1A signal from about 66 kDa, non-boiled samples, vs β-TUB)” value with SNARE complex is recorded as “did not produce any effect on SNARE complex formation”. Besides, in test [4] (intravitreal NMDA 250 μM, 2 μL, eye drops 250 μM, 4 µL daily, from 24 hours prior to NMDA through the 4-week study period, n = 4), the “RBPMS-positive cells (immunofluorescence), RGC viability” value was “had no effect on either RGC viability or apoptosis”. In addition, the “retinal cytoarchitecture (hematoxylin/Eosin staining)” value in [4] (intravitreal NMDA, eye drops 250 μM daily from one day prior to NMDA through follow-up, n = 3) is reported as “failed to do so”. Besides, in test [4] (intravitreal NMDA, eye drops 250 μM daily from one day prior to NMDA through follow-up, n = 4), the “c-CASP3 immunoreactivity / c-CASP3-positive cells, apoptosis” value is given as “had no effect on either RGC viability or apoptosis”. Besides, in [4] (intravitreal NMDA, eye drops 250 μM daily, CTB-488 1 µL intravitreal before sacrifice, n = 5), the “uptake and transport of the neural tracer CTB-488 in RGCs (mean fluorescence intensity)” value was “diminished CTB uptake and transport in RGCs”. Besides, the “L-glutamate immunofluorescence in retinal tissue” value in the test on L-glutamate was “had no effect”. For the same sequence, the “IBA1 immunoreactivity (microglial infiltration)” value in the test on microglia (IBA1) is “no reduction was seen upon treatment with sJGRi1”. In the test with STX1A, the “STX1A level (immunofluorescence)” value is “does not have any effect on JNK2 nor STX1A expression at T24”.

These data come from paper PMC13194685 (Cell Death & Disease, 2026).
